Laboratory results taken from ChEMBL document CHEMBL1122170, “Angiotensin converting enzyme inhibitors: modifications of a tripeptide analogue” (J Med Chem, 1982).

Target: Angiotensin-converting enzyme (Cavia porcellus)
Test: Concentration required for 50% inhibition of Angiotensin I converting enzyme

| SMILES | IC50 [nM] |
| --- | --- |
| O=C(NC(Cc1ccccc1)C(=O)CSCC(=O)N1CCC[C@@H]1C(=O)O)c1ccccc1 (stereo not given in full) | 12 |
| O=C(NC(Cc1ccccc1)C(=O)CNCC(=O)N1CCC[C@@H]1C(=O)O)c1ccccc1 (stereo not given in full) | 960 |
| O=C(NC(Cc1ccccc1)C(=O)COCC(=O)N1CCC[C@@H]1C(=O)O)c1ccccc1 (stereo not given in full) | 4.4 |

More lines, now with the values ahead:

| IC50 [nM] | SMILES |
| --- | --- |
| 22000 | Cc1ccc(S(=O)(=O)N(CC(=O)C(Cc2ccccc2)NC(=O)c2ccccc2)CC(=O)N2CCC[C@@H]2C(=O)O)cc1 (stereo not given in full) |
| 42 | O=C(NC(Cc1ccccc1)C(=O)CCCC(=O)N1CCC[C@@H]1C(=O)O)c1ccccc1 (stereo not given in full) |
